{"source": "patent US9725490B2", "about": "“ERAP1-derived peptide and use thereof” (TOKUSHIMA UNIVERSITY, priority 2011, dated 2017)", "assay_type_in_all_cases": "cell-based, human", "key": {"[1]": {"tested_on": "ERα complex with PHB2/REA, NcoR, HDAC1, SRC-1", "test": "Chromatin remodeling complex, immunoprecipitation of nuclear fraction", "experimental": "KPL-3C cells temporarily transfected with an ERE-luciferase reporter vector were treated with the ERAP1-peptide in the concentrations shown in the figure. Then, immediately, the cells were stimulated with 10 nM E2 for 24 hours. TAM indicates the tamoxifen treatment. […] KPL-3C cells were treated for 24 hours with the ERAP1-peptide and/or E2. Then, the nuclear fraction was immunoprecipitated with anti-ERα antibody or an anti-PHB2 antibody.\nFIG. 4-4 is a diagram illustrating that the ERAP1-peptide promotes nuclear translocation of PHB2. […] MCF-7 cells were treated with the ERAP1-peptide and/or 10 nM E2 for 24 hours. Then, the nuclear fraction was immunoprecipitated with anti-ERα antibody or an anti-PHB2 antibody. […] MCF-7 cells were treated with the ERAP1-peptide and/or E2 for 24 hours. Then, the cell lysate was immunoprecipitated with anti-PHB2 antibody. Subsequently, the HDAC activity in the immunoprecipitate was measured with a commercially available kit. The nuclear extract from the HeLa cells and PBS were used as a positive control (P) and as negative control (N), respectively.\nAs described in the item of “Western blotting analysis”, the cells were lysed with a 0.1% NP-40 lysis buffer. The cell lysate was precleaned using normal IgG and rec-Protein G Sepharose 4B (Zymed, San Francisco, Calif., USA) at 4° C. for 3 hours. […]"}, "MCF-7 cells": {"tested_on": "MCF-7 cells", "test": "Cell cycle FACS analysis, MCF-7", "details": "10 μM ERAP1-peptide and/or 10 nM tamoxifen, 10 nM E2 24 hours", "experimental": "FIG. 6-2 is a diagram illustrating that ERAP1-peptide treatment suppresses ERα-dependent cell proliferation of breast cancer cell lines. […] MCF-7 cells were treated with 10 μM ERAP1-peptide or 10 μM tamoxifen. Then, immediately, the cells were stimulated with 10 nM E2 for 24 hours. After the immobilization, the cells were stained with propidium iodide, and analyzed by flow cytometry.\nFIG. 19 is a diagram illustrating the results of FACS analysis showing the effects of concomitant use of the ERAP1-peptide and tamoxifen on the cell cycle.\nThe cells were fixed with cold 70% ethanol, and stained with 20 μg/ml propidium iodide (Sigma) and 1 mg/ml ribonuclease A (Sigma), and analyzed with FACSCalibur (B D, Franklin Lakes, N.J., USA). The cell cycle was evaluated using CellQuest software (BD).\nMCF-7 cells were treated with 10 μM ERAP1-peptide and/or 10 nM tamoxifen. Then, immediately, the cells were stimulated with 10 nM E2 for 24 hours. After the immobilization, the cells were stained with propidium iodide, and analyzed by flow cytometry."}, "[2]": {"tested_on": "ERα interaction with IGF-1Rβ, Shc; AKT and MAPK", "test": "Non-genomic activation route, immunoblotting, KPL-3C", "experimental": "FIG. 9-1 is a diagram illustrating that ERAP1-peptide treatment suppresses the non-genomic activation route. […] The cell lysate of the ERα-positive breast cancer cell lines shown in the figure was subjected to immunoblotting analysis using the antibodies shown in the figure. […] KPL-3C cells were treated with the ERAP1-peptide and/or E2 for 24 hours. Then the nuclear fraction was immunoprecipitated with anti-ERα antibody.\n(§1) FIG. 9-2 is a diagram illustrating that ERAP1-peptide treatment suppresses the non-genomic activation route. […] The cells (C and D) or BT474 cells (E) Were treated with the ERAP1-peptide. Then, the phosphorylation levels of Akt (C). MAPK (C) and ERα (D and E) were evaluated with Western blotting. The relative phosphorylation levels were quantified by densitometry analysis, and the ratio to the value at 0 hour for non-treated cells was calculated."}, "ERα phosphorylation": {"tested_on": "ERα phosphorylation", "test": "E2-induced ERα phosphorylation, Western blotting, KPL-3C and BT-474", "details": "KPL-3C and BT-474 cells", "experimental": "as §1"}, "ERAP1 expression": {"tested_on": "ERAP1 expression", "test": "ERAP1 expression, quantitative RT-PCR and Western, MCF-7", "details": "10 μM peptide, time course"}, "ZR75-1 cells": {"tested_on": "ZR75-1 cells", "test": "E2-independent cell proliferation, ZR-75-1", "details": "10 μM every 24 hours, at 96 hours", "experimental": "FIG. 16 is a diagram illustrating the influence of the ERAP1-peptide on proliferation of E2-independent breast cancer cells. […] Each of the cells was treated with 10 μM ERAP1-peptide for 24 hours (MCF-7), for 48 hours (KPL-3C) or for 96 hours (ZR-75-1 and T47D).\nMCF-7 cells or ZR-75-1 cells were seeded in 2×10^4/well, and KPL-3C cells were seeded in 1×10^4/well on a 48-well plate, and stood in a CO2 incubator for 24 hours. Then, for MCF-7 cells, the culture medium was exchanged with DMEM/F12 culture medium containing 10% FBS (Nichirei Biosciences, Tokyo, Japan), 1% antibiotic/antimycotic solution (Invitrogen), 0.1 mM NEAA48 (invitrogen), 1 mM sodium pyruvate and 10 μg/ml insulin (Sigma, St. Louis, Mo., USA) and not containing phenol red, and the cells were further pre-cultured for 24 hours. On the other hand, for ZR-75-1 cells and KPL-3C cells, the culture media were exchanged with RPMI culture media containing 10% FBS and 1% antibiotic/antimycotic solution and not containing phenol red, and the cells were further pre-cultured for 24 hours. The supernatant was removed, and then 200 μl of the ERAP1-peptide in each concentration or tamoxifen as a positive control was added, respectively and the mixture was reacted for 24 hours. […] Then, 100 μl from each well was moved to a 96-well plate, and the absorbance at 450 nm was measured with a microplate reader."}}, "note": "Entries after “also recorded” stand apart in the source; their conditions may differ.", "data": [{"compound": "CSCC[C@H](NC(=O)[C@H](CCC(N)=O)NC(=O)[C@H](CCCNC(=N)N)NC(=O)[C@H](CCCNC(=N)N)NC(=O)[C@H](CCCNC(=N)N)NC(=O)[C@H](CCCNC(=N)N)NC(=O)[C@H](CCCNC(=N)N)NC(=O)[C@H](CCCNC(=N)N)NC(=O)[C@H](CCCNC(=N)N)NC(=O)[C@H](CCCNC(=N)N)NC(=O)[C@H](CCCNC(=N)N)NC(=O)[C@H](CCCNC(=N)N)NC(=O)[C@@H](N)CCCNC(=N)N)C(=O)N[C@@H](CC(C)C)C(=O)N[C@@H](CO)C(=O)N[C@@H](CC(=O)O)C(=O)N[C@@H](CC(C)C)C(=O)N[C@H](C(=O)N[C@@H](CC(C)C)C(=O)N[C@@H](CCC(N)=O)C(=O)N[C@@H](CC(C)C)C(=O)N[C@@H](CCCNC(=N)N)C(=O)N[C@@H](CCC(N)=O)C(=O)N[C@@H](CCCNC(=N)N)C(=O)O)[C@@H](C)O", "note": "[ERAP1-peptide]", "values": [{"measurement": "interaction of ERα with transcription factors", "setting": "[1]; KPL-3C cells", "value": "ERα recruited NcoR and HDAC1 to form a complex"}, {"measurement": "interaction of ERα with transcription factors", "setting": "[1]; MCF-7 cells", "value": "the binding of ERα and SRC-1 decreased, whereas ERα interacted with PHB2/REA, and further recruited NcoR and HDAC1 to form a complex"}, {"measurement": "cell cycle", "setting": "MCF-7 cells", "value": "induced stop of the G1 phase; also recorded: increase of cells having stopped in the G1 phase"}, {"measurement": "activations of AKT and MAPK", "setting": "[2]", "value": "activations of AKT and MAPK were suppressed"}, {"measurement": "binding of ERα and Shc and of ERα and IGF-1Rβ", "setting": "[2]", "value": "the binding of ERα and Shc and the binding of ERα and IGF-1Rβ were inhibited"}, {"measurement": "E2-dependent phosphorylation of ERα sites", "setting": "ERα phosphorylation", "value": "E2-dependent phosphorylation in all of the sites was suppressed"}, {"measurement": "E2-dependent expression of ERAP1", "setting": "ERAP1 expression", "value": "temporally suppressed"}, {"measurement": "cell proliferation in the absence of E2", "setting": "ZR75-1 cells", "value": "significant cell proliferation suppression effect"}]}]}
